Source: patent US9266871B2, “Trifluoromethyl-substituted fused pyrimidines and their use” (BAYER PHARMA AKTIENGESELLSCHAFT, priority 2013, dated 2016)

Test: Pharmacokinetic parameters following intravenous and oral administration
Assay type: in vivo, rat
Details: rats, i.v. 0.3 mg/kg and oral 1 mg/kg
Source text: • Klaus Witte, Kai Hu, Johanna Swiatek, Claudia Müssig, Georg Ertl and Björn Lemmer: Experimental heart failure in rats: effects on cardiovascular circadian rhythms and on myocardial β-adrenergic signaling. Cardiovasc Res 47 (2): […], 2000; Kozo Okamoto: Spontaneous hypertension in rats. Int Rev Exp Pathol 7: 227-270, 1969; Maarten van den Buuse: Circadian Rhythms of Blood Pressure, Heart Rate, and Locomotor Activity in Spontaneously Hypertensive Rats as Measured With Radio-Telemetry. Physiology & Behavior 55(4): 783-787, 1994 B-4. Determination of Pharmacokinetic Parameters Following Intravenous and Oral Administration
The pharmacokinetic parameters of the compounds of the formula (I) according to the invention are determined in male CD-1 mice, male Wistar rats and female beagles. Intravenous administration in the case of mice and rats is effected by means of a species-specific plasma/DMSO formulation, and in the case of dogs by means of a water/PEG400/ethanol formulation. In all species, oral administration of the dissolved substance is performed via gavage, based on a water/PEG400/ethanol formulation. The removal of blood from rats is simplified by inserting a silicone catheter into the right Vena jugularis externa prior to substance administration. The operation is effected at least one day prior to the experiment with isofluran anaesthesia and administration of an analgesic ([…]/rimadyl (3/1) 0.1 ml s.c.). The blood is taken (generally more than 10 time points) within a time window including terminal time points of at least 24 to a maximum of 72 hours after substance administration. The blood is removed into heparinized tubes. The blood plasma is then obtained by centrifugation; if required, it can be stored at −20° C. until further processing.
An internal standard (which may also be a chemically unrelated substance) is added to the samples of the compounds of the formula (I) according to the invention, calibration samples and qualifiers, and this is followed by protein precipitation using excess acetonitrile. Addition of a buffer solution matched to the LC conditions, and subsequent vortexing, is followed by centrifugation at 1000 g. The supernatant is analysed by means of LC-MS/MS using C18 reversed-phase columns and variable mobile phase mixtures. The substances are quantified via the peak heights or areas from extracted ion chromatograms of specific selected ion monitoring experiments.
The plasma concentration/time plots determined are used to calculate the pharmacokinetic parameters such as AUC (area under the curve), Cmax, t1/2 (terminal half life), F (bioavailability), MRT (mean residence time) and CL (clearance), using a validated pharmacokinetic calculation programme.
Since the substance quantification is performed in plasma, it is necessary to determine the blood/plasma distribution of the substance in order to be able to adjust the pharmacokinetic parameters correspondingly. For this purpose, a defined amount of substance is incubated in heparinized whole blood of the species in question in a rocking roller mixer for 20 min. After centrifugation at 1000 g, the plasma concentration is measured (by means of LC-MS/MS; see above) and determined by calculating the ratio of the Cblood/Cplasma value.

MRT (male, Wistar, rat, plasma): 6.6 h
half-life (male, Wistar, rat, plasma): 5.9 h
AUCnorm: 1.77 kg·h/L
CLblood: 11.7 mL/min/kg
F: 98.8%
SMILES: C[C@@]1(C(F)(F)F)C(=O)Nc2nc(-c3nn(Cc4ncccc4F)c4ncc(F)cc34)nc(NCCC(F)(F)F)c21 (single isomer, unassigned) [Example 1-1]
